According to article PMC11963559, “Identification of novel thiazole derivatives as flaviviral protease inhibitors effective against Dengue (DENV2) and Japanese encephalitis viruses” (Antimicrobial Agents and Chemotherapy, 2025):

target: T1, DENV2 NS2B–NS3 protease (Dengue virus type 2, UniProt P14340); assay: In vitro DENV2 NS2B/NS3pro inhibition assay using a FRET substrate; assay type: biochemical; details: 5 µM substrate, 10 nM NS2b-NS3pro, compounds at 1, 10 and 100 µM, 1 h at RT; compounds 3s-3an
T1 construct: Activity of recombinant dengue 2 virus NS3 protease in the presence of a truncated NS2B co-factor; The N-terminal domain of NS3 contains a highly conserved protease-active core; made in house; host or cells: Escherichia coli BL21(DE3)
Experimental: To assess the anti-DENV NS2B–NS3 activity of the compounds, we expressed the DENV2 NS2B–NS3 protease in BL21DE3 cells and subsequently purified it using Ni-NTA affinity chromatography, as outlined in Materials and Methods ([39], [40]). The protease activity assay was performed using different concentrations (1, 2.5, 5, 10, 25, 50, 75, and 100 µM) of a fluorogenic substrate (Abs-Nle-Lys-Arg-Arg-Ser-3-(NO2)Tyr) at various time points (5, 15, 30, 45, and 60 min), as described previously ([39], [41]). […] Therefore, all subsequent assays were conducted with a 1 h incubation time.
The selected compounds were analyzed using in vitro protease assays performed in black 96-well plates. […] All assays were performed in triplicate. The release of free AMC was measured using a Varioskan LUX multimode microplate reader (Thermo Fisher Scientific) at excitation and emission wavelengths of 380 and 460 nm, respectively. Control fluorescence values obtained in the absence of inhibitors were considered 100%, and those obtained in the presence of inhibitors were calculated as the percentage of inhibition of the control using Microsoft Excel and plotted using Origin Pro 2023b. The background AMC in the absence of protease was subtracted before data analysis. Further, protease assay was done using different concentration of the compounds (1, 10, and 100 µM) to evaluate the IC50 for the in vitro assay. IC50 curves were fitted and determined by fitting the nonlinear equation in Origin2023b software. A similar approach was used to analyze the enzymatic kinetics of protease inhibition. The reaction progress was monitored by the release of free aminomethylcoumarin (AMC), as previously described. The substrate was incubated with or without the inhibitor in the aforementioned reaction buffer in the presence of varying concentrations of the substrate. The reactions were initiated by the addition of the NS2B–NS3 protease. Protease activity was monitored for 1 h based on the initial rate of increase in fluorescence intensity at 460 nm, with an excitation wavelength of 380 nm. The results were analyzed using Origin Pro 2023b and the Michaelis–Menten equation to obtain the apparent Michaelis–Menten constants and maximal velocities. All assays were performed in triplicate. For each tested compound, two different concentrations of the inhibitor (0, 10, and 25 µM) were used at various concentrations (0–250 μM) of the substrate. The mechanism of inhibition was determined by observing the deviations in the apparent Km and Vmax values.

T1 sequence (P14340 1476-1653): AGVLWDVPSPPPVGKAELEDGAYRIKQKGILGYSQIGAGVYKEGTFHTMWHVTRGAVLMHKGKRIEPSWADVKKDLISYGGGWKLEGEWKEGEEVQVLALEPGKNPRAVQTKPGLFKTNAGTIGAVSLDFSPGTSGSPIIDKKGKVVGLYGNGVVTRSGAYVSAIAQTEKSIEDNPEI
T1 sequence (P14340 1398-1437): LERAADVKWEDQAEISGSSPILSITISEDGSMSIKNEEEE

SMILES	IC50 (µM), DENV protease inhibitory activity
COc1ccc(OC)c(/C(C)=N/Nc2nc(-c3cccc([N+](=O)[O-])c3)cs2)c1 [3aa]	completely lost its activity

same assay, conditions: IC50 (µM), DENV2 NS2B–NS3 protease inhibitory activity, 5 µM substrate, 10 nM NS2b-NS3pro, compounds at 1, 10 and 100 µM, 1 h at RT; compounds 3a-3r

SMILES	IC50
Cc1ccc(/C=N/Nc2nc(-c3cccc([N+](=O)[O-])c3)cs2)cc1 [3a]	> 100 µM
Cc1cc(C)cc(/C=N/Nc2nc(-c3cccc([N+](=O)[O-])c3)cs2)c1 [3b]	> 100 µM
COc1ccccc1/C=N/Nc1nc(-c2cccc([N+](=O)[O-])c2)cs1 [3c]	229 µM
COc1ccc(OC)c(/C=N/Nc2nc(-c3cccc([N+](=O)[O-])c3)cs2)c1 [3d]	139 µM
COc1ccc(/C=N/Nc2nc(-c3cccc([N+](=O)[O-])c3)cs2)cc1OC [3e]	502 µM
O=[N+]([O-])c1cccc(-c2csc(N/N=C/c3ccccc3F)n2)c1 [3f]	117 µM
O=[N+]([O-])c1cccc(-c2csc(N/N=C/c3cccc(Cl)c3)n2)c1 [3g]	299 µM
O=[N+]([O-])c1cccc(-c2csc(N/N=C/c3ccccc3Br)n2)c1 [3h]	342 µM
O=[N+]([O-])c1cccc(-c2csc(N/N=C/c3cccc(Br)c3)n2)c1 [3i]	413 µM
Cc1ccc(/C=N/Nc2nc(-c3ccc(Cl)cc3)cs2)cc1 [3j]	603 µM
Cc1cc(C)cc(/C=N/Nc2nc(-c3ccc(Cl)cc3)cs2)c1 [3k]	> 100 µM
COc1ccccc1/C=N/Nc1nc(-c2ccc(Cl)cc2)cs1 [3l]	> 100 µM
COc1ccc(OC)c(/C=N/Nc2nc(-c3ccc(Cl)cc3)cs2)c1 [3m]	216 µM
COc1ccc(/C=N/Nc2nc(-c3ccc(Cl)cc3)cs2)cc1OC [3n]	248 µM
Fc1ccccc1/C=N/Nc1nc(-c2ccc(Cl)cc2)cs1 [3o]	> 100 µM
Clc1ccc(-c2csc(N/N=C/c3cccc(Cl)c3)n2)cc1 [3p]	> 100 µM
Clc1ccc(-c2csc(N/N=C/c3ccccc3Br)n2)cc1 [3q]	> 100 µM
Clc1ccc(-c2csc(N/N=C/c3cccc(Br)c3)n2)cc1 [3r]	> 100 µM

same assay, conditions: IC50 (µM), DENV protease inhibitory activity, 5 µM substrate, 10 nM NS2b-NS3pro, compounds at 1, 10 and 100 µM, 1 h at RT; compounds 3ao–3av

SMILES	IC50
C/C(=N\Nc1nc(-c2ccccc2)cs1)c1ccc(O)cc1 [3ao]	114 µM
C/C(=N\Nc1nc(-c2ccc(C)cc2)cs1)c1ccc(O)cc1 [3ap]	56 µM
C/C(=N\Nc1nc(-c2ccc(F)cc2)cs1)c1ccc(O)cc1 [3ar]	250 µM
C/C(=N\Nc1nc(-c2ccccc2)cs1)c1cc(O)cc(O)c1 [3as]	> 100 µM
C/C(=N\Nc1nc(-c2ccc(C)cc2)cs1)c1cc(O)cc(O)c1 [3at]	27.7 µM
C/C(=N\Nc1nc(-c2ccc(F)cc2)cs1)c1cc(O)cc(O)c1 [3av]	37.1 µM

same assay, conditions: IC50 (µM), DENV protease inhibitory activity, 5 µM substrate, 10 nM NS2b-NS3pro, compounds at 1, 10 and 100 µM, 1 h at RT; compounds 3s-3an

SMILES	IC50
COc1ccc(OC)c(/C(C)=N/Nc2nc(-c3cccc([N+](=O)[O-])c3)cs2)c1 [3aa]	> 100 µM
COc1ccc(/C(C)=N/Nc2nc(-c3cccc([N+](=O)[O-])c3)cs2)cc1OC [3ab]	31.4 µM
C/C(=N\Nc1nc(-c2cccc([N+](=O)[O-])c2)cs1)c1ccc(Cl)cc1 [3ac]	> 100 µM
C/C(=N\Nc1nc(-c2cccc([N+](=O)[O-])c2)cs1)c1ccc(F)cc1 [3ad]	> 100 µM
C/C(=N\Nc1nc(-c2ccc(Cl)cc2)cs1)c1ccc(C)cc1 [3ae]	> 100 µM
C/C(=N\Nc1nc(-c2ccc(Cl)cc2)cs1)c1ccc(O)cc1 [3af]	144 µM
C/C(=N\Nc1nc(-c2ccc(Cl)cc2)cs1)c1cc(O)cc(O)c1 [3ag]	92.3 µM
COc1cccc(/C(C)=N/Nc2nc(-c3ccc(Cl)cc3)cs2)c1 [3ah]	263 µM
COc1ccc(/C(C)=N/Nc2nc(-c3ccc(Cl)cc3)cs2)cc1 [3ai]	399 µM
COc1ccc(/C(C)=N/Nc2nc(-c3ccc(Cl)cc3)cs2)c(OC)c1 [3aj]	> 100 µM
COc1ccc(OC)c(/C(C)=N/Nc2nc(-c3ccc(Cl)cc3)cs2)c1 [3ak]	124 µM
COc1ccc(/C(C)=N/Nc2nc(-c3ccc(Cl)cc3)cs2)cc1OC [3al]	156 µM
C/C(=N\Nc1nc(-c2ccc(Cl)cc2)cs1)c1ccc(F)cc1 [3an]	> 100 µM
C/C(=N\Nc1nc(-c2cccc([N+](=O)[O-])c2)cs1)c1ccc(C)cc1 [3t]	113 µM
C/C(=N\Nc1nc(-c2cccc([N+](=O)[O-])c2)cs1)c1ccc(O)cc1 [3u]	28.7 µM
C/C(=N\Nc1nc(-c2cccc([N+](=O)[O-])c2)cs1)c1cc(O)cc(O)c1 [3v]	27.4 µM
COc1ccccc1/C(C)=N/Nc1nc(-c2cccc([N+](=O)[O-])c2)cs1 [3w]	193 µM
COc1cccc(/C(C)=N/Nc2nc(-c3cccc([N+](=O)[O-])c3)cs2)c1 [3x]	387 µM
COc1ccc(/C(C)=N/Nc2nc(-c3cccc([N+](=O)[O-])c3)cs2)cc1 [3y]	328 µM
COc1ccc(/C(C)=N/Nc2nc(-c3cccc([N+](=O)[O-])c3)cs2)c(OC)c1 [3z]	171 µM

same assay, conditions: protease IC50, -H replaced by -CH3 at R1

SMILES	fold improvement in potency in comparison with 3e
COc1ccc(/C(C)=N/Nc2nc(-c3cccc([N+](=O)[O-])c3)cs2)cc1OC [3ab]	~ 16 fold
